Laboratory results taken from the supplement of paper PMC11451515.

System: SEM cells
Test: cell viability relative to DMSO control; higher = less cytotoxic
Conditions: 48 h
In short: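 Before seeding, each leukemia line was adapted for at least four passages in each medium. NOMO1 or SEM cells (500 cells/well) and P12-Ichikawa cells (1000 cells/well) went into 1536-well plates at 5 μl, then received library compounds in DMSO by pin dosing across 11 threefold concentrations, 47 μM to 0.79 nM. Readout was CellTiter-Glo One luminescence after 48 h at 37°C, and viability is given as a per-plate percentage of DMSO wells, with cell-free wells as background.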

[1] = HPLM + 10% dialyzed FBS, 0.000781 µM
[2] = HPLM + 10% dialyzed FBS, 0.00234 µM
[3] = HPLM + 10% dialyzed FBS, 0.00702 µM
[4] = HPLM + 10% dialyzed FBS, 0.0211 µM
[5] = HPLM + 10% dialyzed FBS, 0.0632 µM
[6] = HPLM + 10% dialyzed FBS, 0.19 µM
[7] = HPLM + 10% dialyzed FBS, 0.569 µM
[8] = HPLM + 10% dialyzed FBS, 1.71 µM
[9] = HPLM + 10% dialyzed FBS, 5.12 µM
[10] = HPLM + 10% dialyzed FBS, 15.4 µM
[11] = HPLM + 10% dialyzed FBS, 46.1 µM
[12] = RPMI 5 mM glucose + 10% FBS, 0.000781 µM
[13] = RPMI 5 mM glucose + 10% FBS, 0.00234 µM
[14] = RPMI 5 mM glucose + 10% FBS, 0.00702 µM
[15] = RPMI 5 mM glucose + 10% FBS, 0.0211 µM
[16] = RPMI 5 mM glucose + 10% FBS, 0.0632 µM
[17] = RPMI 5 mM glucose + 10% FBS, 0.19 µM
[18] = RPMI 5 mM glucose + 10% FBS, 0.569 µM
[19] = RPMI 5 mM glucose + 10% FBS, 1.71 µM
[20] = RPMI 5 mM glucose + 10% FBS, 5.12 µM
[21] = RPMI 5 mM glucose + 10% FBS, 15.4 µM
[22] = RPMI 5 mM glucose + 10% FBS, 46.1 µM
[23] = RPMI 5 mM glucose + 10% dialyzed FBS, 0.000781 µM
[24] = RPMI 5 mM glucose + 10% dialyzed FBS, 0.00234 µM
[25] = RPMI 5 mM glucose + 10% dialyzed FBS, 0.00702 µM
[26] = RPMI 5 mM glucose + 10% dialyzed FBS, 0.0211 µM
[27] = RPMI 5 mM glucose + 10% dialyzed FBS, 0.0632 µM
[28] = RPMI 5 mM glucose + 10% dialyzed FBS, 0.19 µM
[29] = RPMI 5 mM glucose + 10% dialyzed FBS, 0.569 µM
[30] = RPMI 5 mM glucose + 10% dialyzed FBS, 1.71 µM
[31] = RPMI 5 mM glucose + 10% dialyzed FBS, 5.12 µM
[32] = RPMI 5 mM glucose + 10% dialyzed FBS, 15.4 µM
[33] = RPMI 5 mM glucose + 10% dialyzed FBS, 46.1 µM

| Structure (SMILES) | cell viability [1] | cell viability [2] | cell viability [3] | cell viability [4] | cell viability [5] | cell viability [6] | cell viability [7] | cell viability [8] | cell viability [9] | cell viability [10] | cell viability [11] | cell viability [12] | cell viability [13] | cell viability [14] | cell viability [15] | cell viability [16] | cell viability [17] | cell viability [18] | cell viability [19] | cell viability [20] | cell viability [21] | cell viability [22] | cell viability [23] | cell viability [24] | cell viability [25] | cell viability [26] | cell viability [27] | cell viability [28] | cell viability [29] | cell viability [30] | cell viability [31] | cell viability [32] | cell viability [33] |
| --- | --- | --- | --- | --- | --- | --- | --- | --- | --- | --- | --- | --- | --- | --- | --- | --- | --- | --- | --- | --- | --- | --- | --- | --- | --- | --- | --- | --- | --- | --- | --- | --- | --- |
| Clc1ccc(C(c2ccc(Cl)cc2)[n+]2ccn(CC(OCc3ccc(Cl)cc3Cl)c3ccc(Cl)cc3Cl)c2)cc1 (centres undefined) | 108% | 121% | 107% | 105% | 117% | 112% | 108% | 117% | 117% | 61% | 5.22% | 109% | 111% | 117% | 120% | 132% | 127% | 124% | 111% | 106% | 37.7% | 1.63% | 112% | 117% | 118% | 109% | 108% | 123% | 124% | 115% | 125% | 83.3% | 3.06% |
| OC1=C(Cl)C=C(N\C2=C(\C(=O)NC2=O)C3=C(C=CC=C3)[N+]([O-])=O)C=C1 | 78.4% | 92.9% | 105% | 96.9% | 93% | 102% | 98% | 115% | 86.9% | 56.3% | 6% | 103% | 109% | 106% | 123% | 109% | 120% | 104% | 104% | 93.6% | 60.8% | 25.2% | 94.7% | 99.1% | 98.2% | 99.4% | 113% | 98.9% | 116% | 110% | 88.2% | 62.8% | 27.2% |
| COc1cc(C[C@@H](CO)[C@H](CO)Cc2ccc(O)c(OC)c2)ccc1O | 84% | 89.3% | 92.1% | 95% | 104% | 109% | 114% | 107% | 111% | 89.1% | 105% | 91.8% | 85.1% | 88.4% | 81.8% | 91.7% | 105% | 106% | 104% | 105% | 110% | 93.3% | 85.7% | 92.7% | 98.1% | 99.7% | 113% | 102% | 105% | 112% | 108% | 108% | 110% |
| CCOc1cc(C(=O)Nc2ccc(Cl)c(-c3nc4ccccc4[nH]3)c2)cc(OCC)c1OCC | 70.1% | 76% | 91.4% | 92.8% | 92% | 87.5% | 89.3% | 91% | 85.2% | 17.4% | 62.4% | 76.8% | 74.7% | 93.6% | 92.7% | 94.2% | 94.4% | 109% | 94.5% | 93.5% | 9.91% | 48.1% | 73.9% | 77.1% | 91.8% | 95.4% | 85.6% | 93.5% | 92.6% | 86.6% | 77.7% | 16.8% | 46.1% |
| NC(=O)c1nnn(Cc2cc(Cl)c(C(=O)c3ccc(Cl)cc3)c(Cl)c2)c1N | 112% | 116% | 125% | 107% | 127% | 128% | 135% | 116% | 111% | 124% | 89.4% | 115% | 133% | 117% | 114% | 112% | 127% | 120% | 110% | 107% | 106% | 67.6% | 88.6% | 113% | 89.8% | 90.5% | 116% | 95.1% | 99.7% | 101% | 107% | 97.6% | 48.6% |
| Nc1nccc(-c2ccc3noc(-c4ccc(Cl)cc4)c3c2)n1 |  |  |  |  |  |  |  |  |  |  |  | 98.5% | 103% | 99.3% | 102% | 93.9% | 116% | 112% | 104% | 89.1% | 88.9% | 92.7% | 118% | 119% | 119% | 119% | 104% | 115% | 126% | 119% | 108% | 114% | 108% |
| CN(C)C(=O)[C@H](O)[C@H](Cc1ccccc1)NC(=O)c1cc2cc(Cl)ccc2[nH]1 | 98.5% | 109% | 107% | 118% | 122% | 119% | 109% | 86.1% | 14% | 11.2% | 7.62% | 95.8% | 80.9% | 81.7% | 86.3% | 108% | 94.6% | 104% | 81.2% | 14% | 8.95% | 6.87% | 85.2% | 108% | 105% | 100% | 111% | 105% | 105% | 77.9% | 18.8% | 8.36% | 6.18% |
| CN1CCC(CNc2ccc3ncc(-c4cccc(OC(F)(F)F)c4)n3n2)CC1 | 107% | 102% | 104% | 95.6% | 89.1% | 89.7% | 74.5% | 49.7% | 41.6% | 32.2% | 5.1% | 109% | 110% | 113% | 97.4% | 96.4% | 97.6% | 78.3% | 52.9% | 42.5% | 35.5% | 6.26% | 93.3% | 109% | 92.8% | 98.7% | 99.4% | 87.3% | 77.3% | 42.3% | 32.4% | 30.4% | 6.78% |
| C#CCC(Cc1cnc2nc(N)nc(N)c2n1)c1ccc(C(=O)N[C@@H](CCC(=O)O)C(=O)O)cc1 (some centres undefined) | 110% | 113% | 114% | 119% | 47% | 48% | 39.2% | 36.3% | 31.9% | 38.1% | 35.1% | 113% | 122% | 120% | 118% | 90.6% | 73.3% | 74.1% | 71.9% | 66.7% | 68.1% | 68% | 105% | 114% | 110% | 107% | 27.4% | 23.5% | 24.3% | 23% | 20.3% | 22.9% | 22.3% |
| Cc1noc(N[S+](=O)([O-])c2ccc(N)cc2)c1C | 80.2% | 93.5% | 104% | 88.1% | 93.2% | 102% | 83.1% | 96.3% | 99.8% | 90.1% | 102% | 87.6% | 97.5% | 89.7% | 88.5% | 96.2% | 110% | 96% | 114% | 98% | 100% | 92.3% | 99.2% | 91.5% | 96.3% | 89.5% | 120% | 103% | 111% | 104% | 103% | 108% | 99.1% |
| CC1(C)CCC(C)(C)c2cc(NC(=O)c3ccc(C(=O)O)cc3)ccc21 | 88.1% | 107% | 98.5% | 107% | 115% | 101% | 124% | 110% | 104% | 120% | 97.4% | 100% | 93.3% | 111% | 115% | 119% | 111% | 113% | 111% | 116% | 123% | 105% | 90.9% | 92.4% | 84.7% | 95.6% | 91.9% | 93% | 103% | 94.6% | 105% | 101% | 87.7% |
| COC(=O)[C@H](Cc1ccccc1)NC(=O)[C@@H](N)CC(=O)O | 128% | 106% | 111% | 103% | 130% | 110% | 126% | 119% | 103% | 120% | 116% | 125% | 98.5% | 121% | 112% | 122% | 118% | 128% | 119% | 100% | 123% | 116% | 124% | 106% | 104% | 107% | 123% | 122% | 111% | 116% | 98.3% | 110% | 104% |
| COc1cc2c(cc1OC)CN(CCc1ccc(NC(=O)c3cccc4c(=O)c5cccc(OC)c5[nH]c34)cc1)CC2 | 84.4% | 98.8% | 103% | 105% | 106% | 109% | 105% | 105% | 36.4% | 8.23% | 5.66% | 91.1% | 85.9% | 82.9% | 90.8% | 77.2% | 83.5% | 85.2% | 9.76% | 8.45% | 5.57% | 4.07% | 108% | 112% | 104% | 112% | 122% | 116% | 94.3% | 24.4% | 11.2% | 5.96% | 3.77% |
| CCc1nc(N)nc(N)c1-c1ccc(Cl)cc1 | 89% | 95% | 68.1% | 108% | 115% | 106% | 98.9% | 63% | 41% | 47.6% | 36.6% | 77% | 81.2% | 63.4% | 91.9% | 97.1% | 99.3% | 93% | 87.3% | 36% | 93.9% | 83.6% | 77.4% | 92.2% | 70.5% | 96.5% | 98.4% | 92.4% | 95.3% | 101% | 48.6% | 85.9% | 46.6% |
| CC1(C)[C@@H](O)CC[C@@]2(C)[C@H]1CC[C@]3(C)[C@@H]2C(=O)\C=C/4[C@@H]5C[C@](C)(CC[C@]5(C)CC[C@@]34C)C(O)=O | 99.3% | 98.8% | 99.7% | 104% | 105% | 93.9% | 99% | 110% | 99.3% | 90.7% | 86.9% | 98.4% | 113% | 108% | 108% | 101% | 113% | 97.3% | 108% | 99.6% | 101% | 86.1% | 100% | 92.7% | 112% | 109% | 98.6% | 108% | 114% | 103% | 90.2% | 107% | 102% |
